“And” between values parts separate entries of the source, which are not always exact repeats. Equal entries are not always repeated. Where two headings read alike, the source gives them in different places.
Assays:
[1] = system: VCaP cells; parameters: method as in printed; conditions: reviewer comment, ref not given; cited from earlier work
[2] = system: HeLa cells; experiment: Flow cytometry (propidium iodide, sub-G1); assay type: cell-based; conditions: 1 µM, 48 h
Experimental: Cell death and cell cycle arrest were quantified by staining cells with propidium iodide for flow cytometry with a BD FACSCalibur (BD Biosciences) according to the manufacturer’s instructions. […] Cells were collected by centrifugation and fixed in 70% ethanol at 4 °C for 24 h. Cells were washed with PBS and stained with propidium iodide (10 µg/mL) with RNAse treatment at 37 °C for 30 min. DNA content at each cell cycle checkpoint was measured and analyzed using BD CellQuest Pro (BD Biosciences) and ModFit LT Systems (Verity Software House).

[3] = system: U87-MG glioblastoma cells; experiment: Wound healing assay in U87-MG cells; assay type: cell-based; conditions: as early as 4 h and up to 24 h post-scratch
Experimental: To analyze cell migration in two dimensions, U-87 MG or ACHN cells were plated to a monolayer. Cells were scratched with a sterile 10 μl pipette tip and the debris was removed using medium. Cells were treated with compounds and incubated for different time to monitor cell behavior. Photographs were obtained using a microscope at different time point.

[4] = biological target: T1, methionine aminopeptidase 2 (MetAP2) (Homo sapiens, UniProt P50579); experiment: Western blot degradation of MetAP2; assay type: cell-based; conditions: for DC50: read-out: DC50 for MetAP2
T1 construct: Targeted autophagic degradation of endogenous oncoproteins by AUTOTAC; endogenous in cells; host or cells: HEK293 / HEK293T, U87-MG
Experimental: Adherent cells were washed with phosphate-buffered saline (PBS) and cell pellets were lysed in SDS-based sample buffer (277.8 mM Tris-HCI, pH 6.8, 4.4% LDS, 44.4% (v/v) glycerol) containing beta-mercaptoethanol. Alternatively, cell pellets or protein supernatants were lysed in 5X Laemmli sample buffer. Whole-cell lysates were separated using SDS-PAGE, and transferred onto polyvinyllidene difluoride membranes at 100 V for 2 h at 4 °C. The membrane was incubated with a blocking solution consisting 4% skim milk in PBS solution for 30 min at room temperature and incubated with primary antibodies overnight, followed by incubation with host-specific HRP-conjugated secondary antibodies (1:10000 dilution). For signal detection, the membrane was developed with a mixture of ECL solution (Thermo Fisher Scientific) using X-ray films. Densitometry of developed bands was measured and analyzed with ImageJ (NIH, Bethesda).

[5] = system: LNCaP cells; experiment: WST-based cell viability assay in LNCaP cells; conditions: LNcaP, duplicates
[6] = WST-based cell viability assay in LNCaP cells; conditions: human, LNCaP cells
[7] = biological target: T2, mutant p62^D129A (Homo sapiens, UniProt Q13501, D129A); experiment: Pulldown assay with biotinylated YOK-2204, wild-type or D129A p62-myc; assay type: binding; conditions: HEK293T
T2 construct: expressed in transfected cells; host or cells: HEK293T, transient; cell extract used
Experimental: (§1) A set of synthetic 12-mer peptides corresponding to the N-terminal sequences of the V-BiP (V[19]-[…]-biotin) and V-RGS4 (V^2-[…]-biotin) was C-terminally biotin-conjugated. Alternatively, biotinylated versions of YOK-1304, YT-8-8, YTK-1105, YOK-2204, and PBA were synthesized. To cross-link the above peptides with resin beads, biotin-conjugated peptides, and small molecule were mixed with high-capacity streptavidin agarose resin (Thermo Fisher Scientific) at a ratio of 0.5 mg of peptide per 1 mL of settled resin and incubated on a rotator at 4 °C overnight. After washing five times with PBS, the peptide/small molecule-bead conjugates were diluted with PBS at a 1:1 ratio. To prepare protein extracts, cells were collected by centrifugation and lysed by freezing and thawing at least 10 times in hypotonic buffer [10 mM KCl, 1.5 mM MgCl2, and 10 mM HEPES (pH 7.9)] with a protease inhibitor mix (Sigma). After centrifugation at 15,000 rpm 4 °C for 15 min, proteins were quantified using a BCA protein assay kit (Thermo Fisher Scientific). Total protein (200 μg) diluted in 300 μL of binding buffer [0.05% Tween-20, 10% glycerol, 0.2 M KCl, and 20 mM HEPES (pH 7.9)] were mixed with 50 μL of peptide/small molecule-bead resin and incubated at 4 °C for 2 h on a rotator. The protein-bound beads were collected by centrifugation at 2400 × g for 3 min and washed five times with binding buffer. […]

[8] = system: p62 and LC3 punctate structures; experiment: ICC of p62 and LC3 puncta formation and co-localization in HeLa cells; assay type: cell-based; conditions: 2.5 μM, 24 h
Experimental: Cells were cultured on coverslips coated with poly-L-lysine (Sigma) to observe cellular localization of proteins. Using 4% paraformaldehyde in PBS (pH 7.4), the cells were fixed for 15 min at room temperature and washed three times for 5 min with PBS. After fixing, the cells were permeabilized with 0.5% Triton X-100 in PBS solution for 15 min and washed three times with PBS for 5 min. The cells were blocked containing 2% BSA in PBS solution for 1 h at room temperature. Subsequently, the cells were incubated with primary antibody diluted in 2% BSA/PBS solution overnight at 4 °C, followed by washing the cells three times for 10 min with PBS and incubated with Alexa Fluor-conjugated secondary antibody diluted in 2% BSA/PBS for 30 min at room temperature. Using a DAPI-containing mounting medium (Vector Laboratories), the coverslips were mounted on glass slides. Confocal images were taken by laser scanning confocal microscope 510 Meta (Zeiss) and analyzed by Zeiss LSM Image Browser (ver. 4.2.0.121). […] Quantification results are shown as mean ± S.D. or S.E.M. of three independent experiments

[9] = biological target: T3, p62 (Homo sapiens, UniProt Q13501); experiment: In vitro pulldown assay with biotinylated p62 ligands; assay type: binding; conditions: biotinylated ligand, HEK293T extracts
T3 construct: expressed in transfected cells; host or cells: HEK293T, transient; whole lysate used
Experimental: A set of synthetic 12-mer peptides corresponding to the N-terminal sequences of the V-BiP (V[19]-[…]-biotin) and V-RGS4 (V^2-[…]-biotin) was C-terminally biotin-conjugated. Alternatively, biotinylated versions of YOK-1304, YT-8-8, YTK-1105, YOK-2204, and PBA were synthesized. To cross-link the above peptides with resin beads, biotin-conjugated peptides, and small molecule were mixed with high-capacity streptavidin agarose resin (Thermo Fisher Scientific) at a ratio of 0.5 mg of peptide per 1 mL of settled resin and incubated on a rotator at 4 °C overnight. After washing five times with PBS, the peptide/small molecule-bead conjugates were diluted with PBS at a 1:1 ratio. To prepare protein extracts, cells were collected by centrifugation and lysed by freezing and thawing at least 10 times in hypotonic buffer [10 mM KCl, 1.5 mM MgCl2, and 10 mM HEPES (pH 7.9)] with a protease inhibitor mix (Sigma). After centrifugation at 15,000 rpm 4 °C for 15 min, proteins were quantified using a BCA protein assay kit (Thermo Fisher Scientific). Total protein (200 μg) diluted in 300 μL of binding buffer [0.05% Tween-20, 10% glycerol, 0.2 M KCl, and 20 mM HEPES (pH 7.9)] were mixed with 50 μL of peptide/small molecule-bead resin and incubated at 4 °C for 2 h on a rotator. The protein-bound beads were collected by centrifugation at 2400 × g for 3 min and washed five times with binding buffer. The beads were resuspended in 25 μL of SDS sample buffer, heated at 95 °C for 5 min, and subjected to SDS/PAGE and immunoblotting.

[10] = biological target: T4, NBR1 (Homo sapiens, UniProt Q14596); experiment: Competition pulldown assay with biotinylated YOK-2204 (NBR1); assay type: binding; conditions: HEK293T
T4 construct: pulldown assay in HEK293T cells using biotinylated YOK-2204; endogenous in cells; host or cells: HEK293T cell extract
Experimental: as §1

[11] = system: E1; parameters: method as in printed; conditions: authors' reply, ref not given; cited from earlier work
[12] = WST assay viability relative to con = 100, LNcaP, duplicates
[13] = WST assay viability, AVG %, LNcaP

T1 sequence (P50579 whole entry): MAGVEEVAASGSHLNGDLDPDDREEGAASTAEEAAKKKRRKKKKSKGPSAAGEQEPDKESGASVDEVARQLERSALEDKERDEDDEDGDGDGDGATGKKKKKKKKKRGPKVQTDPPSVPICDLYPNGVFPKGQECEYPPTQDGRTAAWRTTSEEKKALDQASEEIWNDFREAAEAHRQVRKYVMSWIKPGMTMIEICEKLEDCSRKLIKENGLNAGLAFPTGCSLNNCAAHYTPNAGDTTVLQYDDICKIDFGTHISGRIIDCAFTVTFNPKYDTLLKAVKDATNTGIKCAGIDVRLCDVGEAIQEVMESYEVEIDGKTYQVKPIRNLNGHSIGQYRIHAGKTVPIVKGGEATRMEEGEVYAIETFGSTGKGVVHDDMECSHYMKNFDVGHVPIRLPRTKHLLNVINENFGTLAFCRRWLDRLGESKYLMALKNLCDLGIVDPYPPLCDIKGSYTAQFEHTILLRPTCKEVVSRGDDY
T4 sequence (Q14596 whole entry): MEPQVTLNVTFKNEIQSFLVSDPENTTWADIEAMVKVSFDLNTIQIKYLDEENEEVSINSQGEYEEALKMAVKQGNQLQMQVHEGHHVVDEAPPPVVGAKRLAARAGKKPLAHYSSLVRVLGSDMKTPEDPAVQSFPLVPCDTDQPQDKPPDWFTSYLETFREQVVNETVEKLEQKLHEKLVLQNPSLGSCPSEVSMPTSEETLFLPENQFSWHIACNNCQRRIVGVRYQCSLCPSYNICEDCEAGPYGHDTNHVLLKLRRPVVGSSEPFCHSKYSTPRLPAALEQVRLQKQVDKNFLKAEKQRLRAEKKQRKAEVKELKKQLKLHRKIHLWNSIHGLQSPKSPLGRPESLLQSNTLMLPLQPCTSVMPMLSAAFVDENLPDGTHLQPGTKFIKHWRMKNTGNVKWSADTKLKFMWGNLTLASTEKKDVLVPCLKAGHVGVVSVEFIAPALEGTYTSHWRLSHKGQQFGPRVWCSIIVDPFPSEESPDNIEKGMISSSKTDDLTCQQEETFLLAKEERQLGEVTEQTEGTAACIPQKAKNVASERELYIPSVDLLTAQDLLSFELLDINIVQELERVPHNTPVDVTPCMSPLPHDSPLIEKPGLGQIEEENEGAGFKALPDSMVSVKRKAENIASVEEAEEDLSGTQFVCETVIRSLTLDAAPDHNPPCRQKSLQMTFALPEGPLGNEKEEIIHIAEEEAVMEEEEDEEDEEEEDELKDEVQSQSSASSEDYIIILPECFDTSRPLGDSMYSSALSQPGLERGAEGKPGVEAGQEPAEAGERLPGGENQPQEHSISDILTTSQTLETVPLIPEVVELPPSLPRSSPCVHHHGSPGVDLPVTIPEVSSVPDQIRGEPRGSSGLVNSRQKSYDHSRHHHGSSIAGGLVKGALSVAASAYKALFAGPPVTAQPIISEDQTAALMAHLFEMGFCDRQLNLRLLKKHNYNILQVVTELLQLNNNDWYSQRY

N#Cc1ccc(O[C@H]2CC[C@H](NC(=O)c3ccc(N4CCC(CN5CCN(c6cc7c(cc6F)C(=O)N(C6CCC(=O)NC6=O)C7=O)CC5)CC4)nn3)CC2)cc1Cl (stereo partly drawn) [ARV-110]
IC50, proliferation assay [1]: low nM range

COC1C(OC(=O)C=CC=CC=CC=CC(=O)NCCOCCOCCNCc2cccc(OCc3ccccc3)c2)CCC2(CO2)C1C1(C)OC1CC=C(C)C (stereo not drawn) [Fumagillin-105]
programmed cell death (sub-G1 subpopulation) [2]: induced programmed cell death
inhibition of migration [3]: more efficiently inhibited the migration
MetAP2 normalized to control, AVG % ([4]; 293T, 24 h, 1nM): 99.8808%
MetAP2 normalized to control, AVG % ([4]; 293T, 24 h, 10nM): 77.0205%
MetAP2 normalized to control, AVG % ([4]; 293T, 24 h, 100nM): 98.7214%
MetAP2 normalized to control, AVG % ([4]; 293T, 24 h, 1uM): 25.6004%
MetAP2 normalized to control, AVG % ([4]; 293T, 24 h, 2.5uM): 44.4377%
MetAP2 normalized to control, AVG % ([4]; 293T, 24 h, 5uM): 22.9281%
MetAP2 normalized to control, AVG % ([4]; 293T, 24 h, 10uM): 19.1769%
Dmax, 24 hr for MetAP2 ([4]; HEK293 cells): 1 to 10 µM
remaining activity at 0.001 µM ([4]; HEK-293T, 24 h, 293T, 24 h, 1nM, single experiments, read-out: MetAP2 normalized to GAPDH and to control, percentage): 98.3%
remaining activity at 0.1 µM ([4]; HEK-293T, 24 h, 293T, 24 h, 100nM, single experiments, read-out: MetAP2 normalized to GAPDH and to control, percentage): 98%
remaining activity at 1 µM ([4]; HEK-293T, 24 h, 293T, 24 h, 1uM, single experiments, read-out: MetAP2 normalized to GAPDH and to control, percentage): 19.3%
remaining activity at 2.5 µM ([4]; HEK-293T, 24 h, 293T, 24 h, 2.5uM, single experiments, read-out: MetAP2 normalized to GAPDH and to control, percentage): 52.8%
DC50 ([4]; U87-MG glioblastoma cells, 24 h): ~500 nM
DC50 ([4]; HEK293 cells (legend: HEK293T), 24 h): ~700 nM and 701 nM

CC(C)NCC(O)COc1ccc(OCCc2ccccc2)c(OCCc2ccccc2)c1 (stereo not drawn) [YOK-2204]
WST assay raw reading ([5]; 0.01uM): 2.286 and 1.976
WST assay viability relative to con = 100 ([5]; 0.01uM): 93.5242
WST assay raw reading ([5]; 0.1uM): 2.213 and 1.938
WST assay viability relative to con = 100 ([5]; 0.1uM): 91.6264
WST assay raw reading ([5]; 1uM): 2.21 and 1.972
WST assay viability relative to con = 100 ([5]; 1uM): 93.3245
WST assay raw reading ([5]; 10uM): 2.305 and 2.064
WST assay viability relative to con = 100 ([5]; 10uM): 97.9191
WST assay raw reading ([5]; 50uM): 2.575 and 2.249
WST assay viability relative to con = 100 ([5]; 50uM): 107.158
WST assay raw reading ([5]; 100uM): 2.662 and 2.714
WST assay viability relative to con = 100 ([5]; 100uM): 130.381
viability at 0.01 µM [6, 12]: 109%
viability at 0.1 µM [6, 12]: 105%
viability at 1 µM [6, 12]: 105%
viability at 10 µM [6, 12]: 110%
viability at 50 µM [6, 12]: 123%
viability at 100 µM [6, 12]: 128%
viability at 0.01 µM [6, 13]: 101%
viability at 0.1 µM [6, 13]: 98.5%
viability at 1 µM [6, 13]: 99.3%
viability at 10 µM [6, 13]: 104%
viability at 50 µM [6, 13]: 115%
viability at 100 µM [6, 13]: 129%
interaction with mutant p62^D129A [7]: severely crippled
LC3 puncta formation, AVG of cells of 50 [8]: 44.6667
LC3 puncta formation, percentage AVG [8]: 89.3333%
p62-LC3 colocalization, AVG of cells of 50 [8]: 37
p62-LC3 colocalization, percentage AVG [8]: 74%
p62 puncta formation, AVG of cells of 50 [8]: 40.3333
p62 puncta formation, percentage AVG [8]: 80.6667%
LC3 puncta formation, cells of 50 cells counted ([8]; single experiments): 47 and 46 and 41
p62-LC3 colocalization, cells of 50 cells counted ([8]; single experiments): 43 and 37 and 31
p62 puncta formation, cells of 50 cells counted ([8]; single experiments): 43 and 37 and 41
binding of p62 in pulldown [9]: bound
interaction with NBR1 [10]: not NBR1

CCOC(=O)c1ccc(N2NC(=O)/C(=C/c3ccc([N+](=O)[O-])o3)C2=O)cc1 [pyr41]
IC50 [11]: < 10000 nM
